# The supplement of paper PMC10307832
# Compound: Cc1cc([C@@H](C)Nc2ccccc2C(=O)O)c2nc(N3CCOCC3)cc(=O)n2c1 [AZD6482] + COc1cc2c(Oc3ccc(NC(=O)C4(C(=O)Nc5ccc(F)cc5)CC4)cc3F)ccnc2cc1OCCCN1CCOCC1 [Foretinib] (partner 0.25 µM)
# Assay: relative viability (nuclei count vs DMSO), 5 days (fraction); higher = more cells survive
# Conditions: first compound 0.08 µM
# Method in brief: (§1)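 Nuclei were stained with Hoechst during a one-step fixation (final 0.05% Triton X-100, 1% formaldehyde, 1 ug/ml Hoechst) carried out 5 days after dosing, then counted on 4× images. The cells, lung cancer lines in 1536-well plates, had been dosed by pin tool the day after seeding with one drug alone or a fixed anchor-drug dose plus five library-drug doses (not always all listed) in √10 steps. Relative viability is the nuclei count in treated wells divided by that in vehicle wells, and each value is the median of duplicate plates.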
row,Cell Line,relative viability
1,LXF-289,0.912
2,NCI-H23,0.976
3,NCI-H647,0.86
4,CAL-12T,1.11
5,NCI-H1651,0.624
6,EPLC-272H,0.621
7,NCI-H1355,0.769
8,NCI-H3122,0.937
9,NCI-H1437,1.2
10,NCI-H1755,0.807
11,NCI-H2023,0.83
12,HCC-15,0.989
13,NCI-H1793,0.575
14,PC-14,0.906

# Same assay, conditions: first compound 0.253 µM
row,Cell Line,relative viability
1,HOP-62,1.15
2,LU99A,0.828
3,BEN,0.62
4,HARA,0.809
5,HCC-78,0.493
6,NCI-H322M,0.847
7,LCLC-97TM1,0.778
8,NCI-H2009,1.24
9,A-427,0.937
10,NCI-H441,0.806
11,NCI-H1734,0.788
12,NCI-H460,0.977
13,NCI-H2347,0.569
14,SK-LU-1,0.735
15,NCI-H1395,0.663
16,201T,1.01
17,NCI-H1915,1.02

row,Cell Line,relative viability
1,HCC-827,0.878
2,LXF-289,0.916
3,NCI-H23,0.856
4,NCI-H647,1.3
5,CAL-12T,1.22
6,NCI-H1651,0.699
7,EPLC-272H,0.426
8,NCI-H2228,0.791
9,NCI-H1355,0.812
10,NCI-H3122,0.846
11,NCI-H1437,1.33
12,NCI-H1755,0.834
13,NCI-H2023,0.757
14,HCC-15,0.882
15,NCI-H1793,0.431
16,PC-14,0.9

# Same assay, conditions: first compound 0.8 µM
row,Cell Line,relative viability
1,HOP-62,1.23
2,LU99A,0.77
3,BEN,0.701
4,HARA,0.889
5,HCC-78,0.517
6,NCI-H322M,0.897
7,LCLC-97TM1,0.823
8,NCI-H2009,1.24
9,A-427,1.13
10,NCI-H441,1.21
11,NCI-H1734,0.875
12,NCI-H460,1
13,NCI-H2347,0.946
14,SK-LU-1,0.688
15,NCI-H1395,0.687
16,201T,1.11
17,NCI-H1915,1.1

row,Cell Line,relative viability
1,HCC-827,0.945
2,LXF-289,0.977
3,NCI-H23,0.922
4,NCI-H647,0.946
5,CAL-12T,1.2
6,NCI-H1651,0.736
7,EPLC-272H,0.506
8,NCI-H2228,0.862
9,NCI-H1355,0.962
10,NCI-H3122,1.09
11,NCI-H1437,1.31
12,NCI-H1755,0.851
13,NCI-H2023,1.02
14,HCC-15,1.01
15,NCI-H1793,0.507
16,PC-14,0.945

# Same assay, conditions: first compound 2.53 µM
row,Cell Line,relative viability
1,HOP-62,0.94
2,LU99A,0.65
3,BEN,0.558
4,HARA,0.663
5,HCC-78,0.351
6,NCI-H322M,0.543
7,LCLC-97TM1,0.595
8,NCI-H2009,0.83
9,NCI-H1734,0.604
10,NCI-H460,0.828
11,NCI-H2347,0.557
12,SK-LU-1,0.555
13,NCI-H1395,0.518
14,201T,0.734
15,NCI-H1915,1
16,HCC-827,0.678

row,Cell Line,relative viability
1,LXF-289,0.938
2,NCI-H23,0.639
3,NCI-H647,0.721
4,CAL-12T,0.792
5,NCI-H1651,0.566
6,EPLC-272H,0.378
7,NCI-H2228,0.694
8,NCI-H1355,0.713
9,NCI-H3122,0.946
10,NCI-H1437,1.13
11,NCI-H1755,0.669
12,NCI-H2023,0.477
13,HCC-15,0.853
14,NCI-H1793,0.3
15,PC-14,0.83

# Same assay, conditions: first compound 8 µM
row,Cell Line,relative viability
1,HOP-62,1.02
2,LU99A,0.633
3,BEN,0.739
4,HARA,0.61
5,HCC-78,0.349
6,NCI-H322M,0.738
7,LCLC-97TM1,0.596
8,NCI-H2009,0.747
9,A-427,1.05
10,NCI-H441,0.87
11,NCI-H1734,0.671
12,NCI-H460,0.719
13,NCI-H2347,0.74
14,SK-LU-1,0.584
15,NCI-H1395,0.555
16,201T,1.08
17,NCI-H1915,1.09

row,Cell Line,relative viability
1,HCC-827,0.499
2,LXF-289,0.831
3,NCI-H23,0.5
4,NCI-H647,0.623
5,CAL-12T,1
6,NCI-H1651,0.636
7,EPLC-272H,0.256
8,NCI-H2228,0.649
9,NCI-H1355,0.641
10,NCI-H3122,0.926
11,NCI-H1437,0.923
12,NCI-H1755,0.603
13,NCI-H2023,0.518
14,HCC-15,0.988
15,NCI-H1793,0.322
16,PC-14,0.953

# Compound: Cc1cc([C@@H](C)Nc2ccccc2C(=O)O)c2nc(N3CCOCC3)cc(=O)n2c1 [AZD6482] + Nc1nc2[nH]cc(CCc3ccc(C(=O)N[C@@H](CCC(=O)O)C(=O)O)cc3)c2c(=O)[nH]1 [Pemetrexed] (partner 0.2 µM)
# Assay: as above
# Conditions: first compound 0.08 µM
# Method in brief: as §1
row,Cell Line,relative viability
1,HOP-62,0.335
2,LU99A,0.187
3,BEN,0.766
4,HARA,0.217
5,HCC-78,0.87
6,NCI-H322M,0.572
7,LCLC-97TM1,0.15
8,NCI-H2009,0.972
9,A-427,0.92
10,NCI-H441,0.261
11,NCI-H1734,0.408
12,NCI-H460,0.0644
13,NCI-H2347,0.382
14,NCI-H1395,0.742
15,201T,0.31
16,NCI-H1915,0.491

row,Cell Line,relative viability
1,HCC-827,0.251
2,LXF-289,0.678
3,NCI-H23,0.651
4,NCI-H647,0.154
5,CAL-12T,1.08
6,NCI-H1651,0.578
7,EPLC-272H,0.24
8,NCI-H2228,0.325
9,NCI-H1355,0.939
10,NCI-H3122,0.191
11,NCI-H1437,0.314
12,NCI-H1755,0.416
13,NCI-H2023,0.254
14,HCC-15,0.208
15,NCI-H1793,0.509
16,PC-14,0.133

# Same assay, conditions: first compound 0.253 µM
row,Cell Line,relative viability
1,HOP-62,0.386
2,LU99A,0.2
3,BEN,0.589
4,HARA,0.241
5,HCC-78,0.857
6,NCI-H322M,0.61
7,LCLC-97TM1,0.166
8,NCI-H2009,1.12
9,A-427,0.967
10,NCI-H441,0.267
11,NCI-H1734,0.442
12,NCI-H460,0.0667
13,NCI-H2347,0.455
14,SK-LU-1,0.906
15,NCI-H1395,0.552
16,201T,0.295
17,NCI-H1915,0.434

row,Cell Line,relative viability
1,HCC-827,0.254
2,LXF-289,0.94
3,NCI-H23,0.484
4,NCI-H647,0.161
5,CAL-12T,1.12
6,NCI-H1651,0.545
7,EPLC-272H,0.382
8,NCI-H2228,0.3
9,NCI-H1355,1.07
10,NCI-H3122,0.198
11,NCI-H1437,0.307
12,NCI-H1755,0.435
13,NCI-H2023,0.226
14,HCC-15,0.231
15,NCI-H1793,0.545
16,PC-14,0.125

# Same assay, conditions: first compound 0.8 µM
row,Cell Line,relative viability
1,HOP-62,0.363
2,LU99A,0.158
3,BEN,0.829
4,HARA,0.278
5,HCC-78,0.926
6,NCI-H322M,0.62
7,LCLC-97TM1,0.164
8,NCI-H2009,1.11
9,A-427,0.963
10,NCI-H441,0.276
11,NCI-H1734,0.408
12,NCI-H460,0.0599
13,NCI-H2347,0.362
14,SK-LU-1,1.04
15,NCI-H1395,0.591
16,201T,0.27
17,NCI-H1915,0.513

row,Cell Line,relative viability
1,HCC-827,0.245
2,LXF-289,1.08
3,NCI-H23,0.715
4,NCI-H647,0.191
5,CAL-12T,1.16
6,NCI-H1651,0.556
7,EPLC-272H,0.383
8,NCI-H2228,0.325
9,NCI-H1355,1.07
10,NCI-H3122,0.2
11,NCI-H1437,0.306
12,NCI-H1755,0.436
13,NCI-H2023,0.204
14,HCC-15,0.244
15,NCI-H1793,0.818
16,PC-14,0.115

# Same assay, conditions: first compound 2.53 µM
row,Cell Line,relative viability
1,HOP-62,0.335
2,LU99A,0.17
3,BEN,0.512
4,HARA,0.254
5,HCC-78,0.862
6,NCI-H322M,0.49
7,NCI-H2009,0.724
8,A-427,0.686
9,NCI-H1734,0.396
10,NCI-H460,0.0555
11,NCI-H2347,0.38
12,SK-LU-1,0.738
13,NCI-H1395,0.45
14,201T,0.314
15,NCI-H1915,0.349
16,HCC-827,0.245

row,Cell Line,relative viability
1,LXF-289,0.849
2,NCI-H23,0.375
3,NCI-H647,0.16
4,CAL-12T,0.867
5,NCI-H1651,0.401
6,EPLC-272H,0.424
7,NCI-H2228,0.303
8,NCI-H1355,0.856
9,NCI-H3122,0.189
10,NCI-H1437,0.274
11,NCI-H1755,0.383
12,NCI-H2023,0.175
13,HCC-15,0.228
14,NCI-H1793,0.416
15,PC-14,0.15

# Same assay, conditions: first compound 8 µM
row,Cell Line,relative viability
1,HOP-62,0.379
2,LU99A,0.172
3,BEN,0.703
4,HARA,0.253
5,HCC-78,0.953
6,NCI-H322M,0.498
7,LCLC-97TM1,0.162
8,NCI-H2009,1.01
9,A-427,0.995
10,NCI-H441,0.282
11,NCI-H1734,0.397
12,NCI-H460,0.0589
13,NCI-H2347,0.364
14,SK-LU-1,0.714
15,NCI-H1395,0.521
16,201T,0.342
17,NCI-H1915,0.452

row,Cell Line,relative viability
1,HCC-827,0.238
2,LXF-289,0.922
3,NCI-H23,0.43
4,NCI-H647,0.158
5,CAL-12T,1.31
6,NCI-H1651,0.482
7,EPLC-272H,0.269
8,NCI-H2228,0.309
9,NCI-H1355,0.875
10,NCI-H3122,0.189
11,NCI-H1437,0.225
12,NCI-H1755,0.36
13,NCI-H2023,0.176
14,HCC-15,0.212
15,NCI-H1793,0.383
16,PC-14,0.135
